pKd: −log10 of the molar value. One block for each molecule: values may come before it.
Tests used:
Format in all cases: binding
[1] = biological target: T1, MAT(α2)4(βV2)2 (Homo sapiens, UniProt P31153); test: X-ray crystal structure, […] Å; settings: active site at MATα2 dimer interface; Mg; two of four sites occupied; SAMe also in 4ndn
T1 construct: gene MAT2A; recombinant in E. coli BL21(DE3), assembled in vitro; His tags cut (TEV for MATα2, thrombin for MATβV2); 258 kDa, 4:2 complex; with Methionine adenosyltransferase 2 subunit beta

[2] = biological target: T1, MAT(α2)4(βV2)2; test: X-ray crystal structure, […] Å; settings: crystal co-crystallized and soaked with ATP only; ADO and PO4 at active site; Mg
[3] = biological target: T2, MATβV2 (Homo sapiens, UniProt Q9NZL9); test: ITC; settings: read-out: NADP → MATβV2
T2 construct: gene MAT2B; recombinant in E. coli BL21(DE3), pET-28a(+); His tag cut with thrombin; free subunit
T2 sequence (Q9NZL9 1-323 isoform Q9NZL9-2): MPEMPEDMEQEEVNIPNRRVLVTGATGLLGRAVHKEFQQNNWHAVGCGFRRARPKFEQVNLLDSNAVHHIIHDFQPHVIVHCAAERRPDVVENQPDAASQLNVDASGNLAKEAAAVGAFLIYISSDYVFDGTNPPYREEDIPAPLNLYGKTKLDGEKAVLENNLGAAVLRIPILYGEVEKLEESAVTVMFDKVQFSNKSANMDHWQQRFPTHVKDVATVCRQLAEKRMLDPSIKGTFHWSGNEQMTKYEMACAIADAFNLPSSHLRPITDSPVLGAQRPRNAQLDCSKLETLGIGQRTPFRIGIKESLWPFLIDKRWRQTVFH

[4] = biological target: T3, MATβV1 (Homo sapiens, UniProt Q9NZL9); test: ITC; settings: read-out: NADP → MATβV1
T3 construct: gene MAT2B; recombinant in E. coli BL21(HC41), HIS-parallel vector; His tag cut with TEV protease; free subunit

[5] = biological target: T1, MAT(α2)4(βV2)2; test: X-ray crystal structure, […] Å; settings: crystal co-crystallized and soaked with AMPPNP and methionine; SAMe also bound; Mg

T1 sequence (P31153 whole entry): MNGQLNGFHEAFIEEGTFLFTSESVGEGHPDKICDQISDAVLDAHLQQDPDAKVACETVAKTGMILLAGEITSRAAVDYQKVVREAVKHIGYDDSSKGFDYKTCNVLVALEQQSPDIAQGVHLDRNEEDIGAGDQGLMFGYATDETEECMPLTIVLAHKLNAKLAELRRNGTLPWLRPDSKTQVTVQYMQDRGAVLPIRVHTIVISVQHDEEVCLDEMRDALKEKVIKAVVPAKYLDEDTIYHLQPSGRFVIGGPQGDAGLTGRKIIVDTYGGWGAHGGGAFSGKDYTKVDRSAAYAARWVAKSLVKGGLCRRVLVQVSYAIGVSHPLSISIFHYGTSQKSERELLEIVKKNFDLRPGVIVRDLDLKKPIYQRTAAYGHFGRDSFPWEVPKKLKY
T1 sequence (Q9NZL9 21-334 partner limits assumed): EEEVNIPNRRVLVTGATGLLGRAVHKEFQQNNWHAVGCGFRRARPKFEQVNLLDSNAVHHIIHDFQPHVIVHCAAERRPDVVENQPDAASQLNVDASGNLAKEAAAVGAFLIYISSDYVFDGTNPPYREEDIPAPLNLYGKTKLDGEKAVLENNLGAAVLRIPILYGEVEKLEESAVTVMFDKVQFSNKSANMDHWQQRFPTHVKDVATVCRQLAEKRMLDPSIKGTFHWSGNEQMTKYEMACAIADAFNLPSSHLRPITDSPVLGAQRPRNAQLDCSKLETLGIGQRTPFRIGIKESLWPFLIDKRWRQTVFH
T3 sequence (Q9NZL9 whole entry): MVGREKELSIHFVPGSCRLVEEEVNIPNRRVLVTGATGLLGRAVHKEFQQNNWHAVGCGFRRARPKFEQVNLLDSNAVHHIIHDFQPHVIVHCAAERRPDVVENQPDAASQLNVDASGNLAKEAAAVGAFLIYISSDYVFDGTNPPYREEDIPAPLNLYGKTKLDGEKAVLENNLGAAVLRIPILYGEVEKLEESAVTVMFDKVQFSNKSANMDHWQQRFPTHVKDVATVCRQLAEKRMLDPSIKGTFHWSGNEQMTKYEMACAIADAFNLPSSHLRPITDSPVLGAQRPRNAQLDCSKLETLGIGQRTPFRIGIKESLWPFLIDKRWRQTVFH

SMILES: C[S+](CC[C@H](N)C(=O)O)C[C@H]1O[C@@H](n2cnc3c(N)ncnc32)[C@H](O)[C@@H]1O (some centres unmarked) [SAMe]
X-ray crystal structure, 2.6 Å [1]: the presence of SAMe, adenosine (ADO) or PPNP

SMILES: Nc1ncnc2c1ncn2[C@@H]1O[C@H](CO)[C@@H](O)[C@H]1O [adenosine]
X-ray crystal structure, 3.3 Å [2]: shows adenosine molecule (ADO) and PO4 at the active site

pKd [3]: 5.05 | pKd [4]: 5.07
SMILES: NC(=O)c1ccc[n+]([C@@H]2O[C@H](COP(=O)(O)OP(=O)(O)OC[C@H]3O[C@@H](n4cnc5c(N)ncnc54)[C@H](OP(=O)(O)O)[C@@H]3O)[C@@H](O)[C@H]2O)c1 [NADP]

SMILES: O=P(O)(O)NP(=O)(O)OP(=O)(O)O [PPNP]
X-ray crystal structure, 2.35 Å [5]: Crystal co-crystallized and soaked with AMPPNP and methionine shows SAMe and PPNP
